Measurements reported in patent publication US20180360042A1, “Liquid fungicide-containing formulations” (BAYER CROPSCIENCE AKTIENGESELLSCHAFT, priority 2015, published 2018).

Assays:
[1] = Determination of compound (III) content in prothioconazole formulations after storage at 54° C. for 2 weeks; type: physicochemical; settings: PTZ EC 250 after storage at 54° C. over 2 weeks
Description: (§1) Determination of 2-(1-chlorocyclopropyl)-1-(2-chlorophenyl)-3-(1H-1,2,4-triazol-1-yl)propan-2-ol (Compound III) in Formulations
(§2) 2-(1-Chlorocyclopropyl)-1-(2-chlorophenyl)-3-(1H-1,2,4-triazol-1-yl)propan-2-ol is separated from the formulation constituents on a reverse phase column using an isocratic eluent. After MS/MS detection, the quantitative evaluation is conducted by comparing the peak areas with those of the reference object, using an external standard.
(§3) High-pressure liquid chromatograph: HP 1090
(§4) Sample injection: HP 1090 Autoinjector
(§5) Mass spectrometer: Quattro I, Fisons
(§6) Integration and evaluation: MassLynx from Micromass
Example 9: Comparison of Compound (III) Content of the Formulations from Examples 1 to 4 after Storage at 54° C. for 2 Weeks

[2] = Determination of compound (III) content in prothioconazole formulations by HPLC-MS/MS, starting samples; type: physicochemical; settings: PTZ EC 250 starting sample
Description: as §1, §2, §3, §4, §5, §6

[3] = addition of 10% wt/wt Hallcomid vs 0%
[4] = addition of 20% wt/wt Hallcomid vs 0%

reduction in the content of compound (III) [1, 3]: 75% | reduction in the content of compound (III) [1, 4]: 82% | reduction in the content of compound (III) ([1]; addition of 56.9% wt/wt Hallcomid vs 0%): 98% | reduction of the content of compound (III) [2, 3]: 72% | reduction of the content of compound (III) [2, 4]: 76% | reduction of the content of compound (III) ([2]; addition of 54.9% wt/wt Hallcomid vs 0%): 97%
Compound: C=CCCCCCCCC(=O)N(C)C [Hallcomid®, N,N-dimethyl 9-decenamide]
